# Where two headings read alike, the source gives them in different places. Bridge positions count the residues as written; N and C are the ends. Square brackets hold non-standard residues; d marks the D form. Peptide text beside a SMILES is read from it.
# Assays:
# [1] = tested on: H9N2 A/Iran/16/2000; conditions: 48 h
# [2] = tested on: H3N2 A/HK/8/1968; conditions: A/HK/8/1968, 48 h
# [3] = tested on: H3N8 A/Miami/2/63; conditions: A/Miami/2/63, 48 h
# [4] = tested on: H1N1 A1/Malaysia/302/1954; conditions: A1/Malaysia/302/1954, 48 h
# [5] = tested on: H1N1 A/PR/8/1934; conditions: A/PR/8/1934, 48 h, 1 μM
SMILES,% inhibition H9N2 ([1]; 500 μM),% inhibition H3N2 ([2]; 500 μM),% inhibition H3N8 ([3]; 500 μM),% inhibition H1N1 ([4]; 500 μM),% inhibition H9N2 ([1]; 50 μM),% inhibition H3N2 ([2]; 50 μM),% inhibition H3N8 ([3]; 50 μM),% inhibition H1N1 ([4]; 50 μM),% Inhibition [5]
"C[C@H](O)[C@H]1NC(=O)[C@H](N)CSSC[C@H](C(=O)O)NC(=O)[C@@H](CC(N)=O)NC(=O)[C@@H](C)NC(=O)[C@@H](Cc2ccccc2)NC(=O)[C@@H](CCCNC(=N)N)NC(=O)[C@@H](CO)NC(=O)[C@@H](CCCCN)NC1=O [PSP 1, H-ctksrfanc-OH] (H-[dC][dT][dK][dS][dR][dF][dA][dN][dC]-OH; disulfide 1-9)",36.4%,70.4%,79.4%,29.4%,,,,,
"C[C@H](O)[C@H]1NC(=O)[C@H](N)CSSC[C@H](C(=O)O)NC(=O)[C@@H](CC(N)=O)NC(=O)[C@@H](CS)NC(=O)[C@@H](Cc2ccccc2)NC(=O)[C@@H](CCCNC(=N)N)NC(=O)[C@@H](CO)NC(=O)[C@@H](CCCCN)NC1=O [PSP 2, H-ctksrfcnc-OH] (H-[dC][dT][dK][dS][dR][dF][dC][dN][dC]-OH; disulfide 1-9)",,18.5%,65%,67.6%,,,,,
"C[C@H](O)[C@H]1NC(=O)[C@H](N)CSSC[C@H](C(=O)O)NC(=O)[C@@H](CC(N)=O)NC(=O)[C@@H](CC(=O)O)NC(=O)[C@@H](Cc2ccccc2)NC(=O)[C@@H](CCCNC(=N)N)NC(=O)[C@@H](CO)NC(=O)[C@@H](CCCCN)NC1=O [PSP 3, H-ctksrfdnc-OH] (H-[dC][dT][dK][dS][dR][dF][dD][dN][dC]-OH; disulfide 1-9)",>50%,74.1%,67%,29.4%,,,,,
"C[C@H](O)[C@H]1NC(=O)[C@H](N)CSSC[C@H](C(=O)O)NC(=O)[C@@H](CC(N)=O)NC(=O)[C@@H](CCC(=O)O)NC(=O)[C@@H](Cc2ccccc2)NC(=O)[C@@H](CCCNC(=N)N)NC(=O)[C@@H](CO)NC(=O)[C@@H](CCCCN)NC1=O [PSP 4, H-ctksrfenc-OH] (H-[dC][dT][dK][dS][dR][dF][dE][dN][dC]-OH; disulfide 1-9)",,22.7%,64%,52.9%,,,,,
"C[C@H](O)[C@H]1NC(=O)[C@H](N)CSSC[C@H](C(=O)O)NC(=O)[C@@H](CC(N)=O)NC(=O)[C@@H](Cc2ccccc2)NC(=O)[C@@H](Cc2ccccc2)NC(=O)[C@@H](CCCNC(=N)N)NC(=O)[C@@H](CO)NC(=O)[C@@H](CCCCN)NC1=O [PSP 5, H-ctksrffnc-OH] (H-[dC][dT][dK][dS][dR][dF][dF][dN][dC]-OH; disulfide 1-9)",,45.5%,77.3%,47.1%,,,,,
"C[C@H](O)[C@H]1NC(=O)[C@H](N)CSSC[C@H](C(=O)O)NC(=O)[C@@H](CC(N)=O)NC(=O)[C@@H](Cc2c[nH]cn2)NC(=O)[C@@H](Cc2ccccc2)NC(=O)[C@@H](CCCNC(=N)N)NC(=O)[C@@H](CO)NC(=O)[C@@H](CCCCN)NC1=O [PSP 7, H-ctksrfhnc-OH] (H-[dC][dT][dK][dS][dR][dF][dH][dN][dC]-OH; disulfide 1-9)",31.8%,81.8%,76.3%,23.5%,,,,,
"CC[C@@H](C)[C@H]1NC(=O)[C@@H](Cc2ccccc2)NC(=O)[C@@H](CCCNC(=N)N)NC(=O)[C@@H](CO)NC(=O)[C@@H](CCCCN)NC(=O)[C@@H]([C@H](C)O)NC(=O)[C@H](N)CSSC[C@H](C(=O)O)NC(=O)[C@@H](CC(N)=O)NC1=O [PSP 8, H-ctksrfinc-OH] (H-[dC][dT][dK][dS][dR][dF][dI][dN][dC]-OH; disulfide 1-9)",90.9%,90.9%,83.5%,79.4%,,,,,
"CC(C)C[C@H]1NC(=O)[C@@H](Cc2ccccc2)NC(=O)[C@@H](CCCNC(=N)N)NC(=O)[C@@H](CO)NC(=O)[C@@H](CCCCN)NC(=O)[C@@H]([C@H](C)O)NC(=O)[C@H](N)CSSC[C@H](C(=O)O)NC(=O)[C@@H](CC(N)=O)NC1=O [PSP 10, H-ctksrflnc-OH] (H-[dC][dT][dK][dS][dR][dF][dL][dN][dC]-OH; disulfide 1-9)",50%,95.5%,82.5%,88.2%,,,,,
"C[C@H](O)[C@H]1NC(=O)[C@H](N)CSSC[C@H](C(=O)O)NC(=O)[C@@H](CC(N)=O)NC(=O)[C@H]2CCCN2C(=O)[C@@H](Cc2ccccc2)NC(=O)[C@@H](CCCNC(=N)N)NC(=O)[C@@H](CO)NC(=O)[C@@H](CCCCN)NC1=O [PSP 13, H-ctksrfpnc-OH] (H-[dC][dT][dK][dS][dR][dF][dP][dN][dC]-OH; disulfide 1-9)",18.2%,29.6%,70.1%,32.7%,,,,,
"C[C@H](O)[C@H]1NC(=O)[C@H](N)CSSC[C@H](C(=O)O)NC(=O)[C@@H](CC(N)=O)NC(=O)[C@@H](CCCNC(=N)N)NC(=O)[C@@H](Cc2ccccc2)NC(=O)[C@@H](CCCNC(=N)N)NC(=O)[C@@H](CO)NC(=O)[C@@H](CCCCN)NC1=O [PSP 15, H-ctksrfrnc-OH] (H-[dC][dT][dK][dS][dR][dF][dR][dN][dC]-OH; disulfide 1-9)",,3.7%,61.9%,11.5%,,,,,
"CC(C)[C@H]1NC(=O)[C@@H](Cc2ccccc2)NC(=O)[C@@H](CCCNC(=N)N)NC(=O)[C@@H](CO)NC(=O)[C@@H](CCCCN)NC(=O)[C@@H]([C@H](C)O)NC(=O)[C@H](N)CSSC[C@H](C(=O)O)NC(=O)[C@@H](CC(N)=O)NC1=O [PSP 18, H-ctksrfvnc-OH] (H-[dC][dT][dK][dS][dR][dF][dV][dN][dC]-OH; disulfide 1-9)",45.5%,70.4%,78.4%,51.9%,,,,,
"C[C@H](O)[C@H]1NC(=O)[C@H](N)CSSC[C@H](C(=O)O)NC(=O)[C@@H](CC(N)=O)NC(=O)[C@@H](Cc2c[nH]c3ccccc23)NC(=O)[C@@H](Cc2ccccc2)NC(=O)[C@@H](CCCNC(=N)N)NC(=O)[C@@H](CO)NC(=O)[C@@H](CCCCN)NC1=O [PSP 19, H-ctksrfwnc-OH] (H-[dC][dT][dK][dS][dR][dF][dW][dN][dC]-OH; disulfide 1-9)",,92.6%,78.4%,28.8%,,,,,
"C[C@H](O)[C@H]1NC(=O)[C@H](N)CSSC[C@H](C(=O)O)NC(=O)[C@@H](CC(N)=O)NC(=O)[C@@H](Cc2ccc(O)cc2)NC(=O)[C@@H](Cc2ccccc2)NC(=O)[C@@H](CCCNC(=N)N)NC(=O)[C@@H](CO)NC(=O)[C@@H](CCCCN)NC1=O [PSP 20, H-ctksrfync-OH] (H-[dC][dT][dK][dS][dR][dF][dY][dN][dC]-OH; disulfide 1-9)",63.6%,95.5%,81.4%,73.5%,,,,,
"CC[C@@H](C)[C@H]1NC(=O)[C@@H](Cc2ccccc2)NC(=O)[C@@H](CCCNC(=N)N)NC(=O)[C@@H](C)NC(=O)[C@@H](Cc2c[nH]c3ccccc23)NC(=O)[C@@H]([C@H](C)O)NC(=O)[C@H](NC(=O)[C@H](CCCCN)NC(=O)[C@H](CCCCN)NC(=O)[C@H](CCCNC(=N)N)NC(=O)[C@@H](N)CCCNC(=N)N)CSSC[C@H](C(=O)O)NC(=O)[C@@H](CC(N)=O)NC1=O [PSP III B1, H-RRKKctwarfinc-OH] (H-RRKK[dC][dT][dW][dA][dR][dF][dI][dN][dC]-OH; disulfide 5-13)",,,,,95%,92%,96%,85%,
"CC[C@@H](C)[C@H]1NC(=O)[C@@H](Cc2ccccc2)NC(=O)[C@@H]([C@H](C)O)NC(=O)[C@@H](Cc2ccccc2)NC(=O)[C@@H](Cc2c[nH]c3ccccc23)NC(=O)[C@@H](Cc2c[nH]c3ccccc23)NC(=O)[C@H](NC(=O)[C@H](CCCCN)NC(=O)[C@H](CCCCN)NC(=O)[C@H](CCCNC(=N)N)NC(=O)[C@@H](N)CCCNC(=N)N)CSSC[C@H](C(=O)O)NC(=O)[C@@H](Cc2c[nH]c3ccccc23)NC1=O [PSP VI A19, H-RRKKcwwftfiwc-OH] (H-RRKK[dC][dW][dW][dF][dT][dF][dI][dW][dC]-OH; disulfide 5-13)",,,,,,,,,78%
"CC[C@@H](C)[C@H]1NC(=O)[C@@H](Cc2ccccc2)NC(=O)[C@@H]([C@H](C)O)NC(=O)[C@@H](Cc2ccccc2)NC(=O)[C@@H](Cc2c[nH]c3ccccc23)NC(=O)[C@@H](Cc2c[nH]c3ccccc23)NC(=O)[C@H](NC(=O)[C@H](CCCCN)NC(=O)[C@H](CCCCN)NC(=O)[C@H](CCCNC(=N)N)NC(=O)[C@@H](N)CCCNC(=N)N)CSSC[C@H](C(=O)O)NC(=O)[C@@H](Cc2ccc(O)cc2)NC1=O [PSP VI A20, H-RRKKcwwftfiyc-OH] (H-RRKK[dC][dW][dW][dF][dT][dF][dI][dY][dC]-OH; disulfide 5-13)",,,,,,,,,53%

# Source: patent US10538554B2, “Peptides and uses therefor as antiviral agents” (priority 2015, dated 2020)
